Experimental data taken from patent publication US20250345169A1, “DEVICES FOR PROVIDING TISSUE SUPPORT DURING BREAST RECONSTRUCTION, AND SYSTEMS AND METHODS THEREOF” (Melodi Health, Inc., priority 2023, published 2025).

Settings: in vivo

| systemic plasma level | Structure (SMILES) |
| --- | --- |
| below detection limits | CO[C@H]1/C=C/O[C@@]2(C)Oc3c(C)c(O)c4c(O)c(c(/C=N/N5CCN(C)CC5)c(O)c4c3C2=O)NC(=O)/C(C)=C\C=C\[C@H](C)[C@H](O)[C@@H](C)[C@@H](O)[C@@H](C)[C@H](OC(C)=O)[C@@H]1C [Rifampin] |
| below detection limits | CN(C)c1ccc(O)c2c1C[C@H]1C[C@H]3[C@H](N(C)C)C(O)=C(C(N)=O)C(=O)[C@@]3(O)C(O)=C1C2=O [Minocycline] |
